Drawing on patent US11427594B2, “Non brain penetrant A2A inhibitors and methods for use in the treatment of cancers” (iTeos Belgium SA, priority 2018, dated 2022), this text covers efflux ratio and IC50 for 9 compounds.

What is called efflux ratio is a quotient of directional permeabilities that is used to spot active efflux. The IC50 is the midpoint of a concentration-inhibition curve.

Where two headings read alike, the source gives them in different places.

Series [1] is described as follows: Permeability and efflux in Caco-2 cells. In kind it is in vitro ADME. The note with it: human, Caco-2 monolayer, bidirectional transport, pH 7.4. The procedure:
The transport buffer (TB, pH 7.4) used in the study is Hank's Buffered Saline Solution (HBSS, Gibco, Cat #14025-076) with 10 mM HEPES at pH 7.4. Fetal bovine serum (FBS) (Corning, Cat #Corning-35-076-CV, or other vendors), Minimum Essential Media (MEM) (Gibco, Cat #41500-034) as well as its supplements are purchased from Invitrogen (Carlsbad, Calif., USA). Caco-2 cell line (Cat #HTB-37) is purchased from the ATCC (Rockville, Md., USA). The organic solvents used in the study are purchased from Sigma Aldrich (St. Louis, Mo., USA). For reference compounds (fenoterol, propranolol and digoxin) and test compounds, 0.4 mM intermediate solutions are prepared by diluting 10 mM or other appropriate concentrations of DMSO stock solutions with DMSO. 2 μM dosing solutions for reference compounds and test compounds are prepared by spiking the appropriate volume of intermediate solution to TB with and without 1 μM Zosuquidar. The final concentration of DMSO is no more than 1% (v/v). Caco-2 cells are grown in MEM supplemented with 2 mM L-glutamine, 10% FBS, 100 U/mL penicillin-G and 100 μg/mL streptomycin. The cells are incubated at 37° C., 5% CO2 and relatively saturated humidity. After reaching 80-90% confluency, the cells are gently detached with 0.05% trypsin-EDTA solution. Cells at passage 30-50 are seeded on the 96-well BD insert system (Cat #359274) at the density of 1×10^5 cells/cm2 and cultured for 21-28 days with medium changed every 4-5 days. TB and dosing solutions were pre-warmed to 37° C. before transport assay. The cell monolayer was washed twice with HBSS containing 10 mM HEPES. For A-B (apical to basolateral) directional transport assay, 75 μL dosing solution is added to the apical well. Fill each basolateral well with 250 μL TB. For B-A (basolateral to apical) directional transport assay, 250 μL of dosing solution is added to the basolateral well after filling each apical well with 75 μL TB. Test compound(s) and digoxin are tested at 2 μM in the presence or absence of 1 μM zosuquidar bidirectionally in duplicate. Atenolol and propranolol are tested at 2 μM in the absence of zosuquidar in A to B direction in duplicate. The plates are incubated for 120 minutes at 37° C. with 5% C02 and saturated humidity. The time zero samples are generated by mixing 50 μL initial dosing solution of test compound or reference compound with 100 μL TB and 250 μL quench solution (acetonitrile (ACN) or other appropriate solvent with internal standard(s), based on the bioanalytical method development). At 120 minutes, 150 μL of solution is collected from each A-B receiver well followed by addition of 250 μL quench solution to get A-B receiver sample. And for other samples (A-B donor, B-A donor and receiver), 50 μL of solution is collected from each corresponding well followed by addition of 250 μL quench solution and 100 μL TB. All samples are vortex-mixed and centrifuged at 3220 g for 20 minutes. Subsequently, supernatant is diluted with ultra pure water for LC-MS/MS analysis. The concentrations of test compound in all samples are determined by LC-MS/MS and expressed as peak area ratio of analyte to internal standard. The concentration of samples is expressed using the peak area ratio of Analyte to Internal Standard (Analyte/IS). The apparent permeability coefficient (Papp) is calculated using the following equation: Papp=VR/(Area*Time)*(CR/C0) wherein VR is the solution volume in the receiver chamber (0.075 mL on the apical side, 0.25 mL on the basolateral side); Area is the surface area for the transport, i.e. 0.0804 cm2 for the area of the monolayer; Time is incubation time, expressed in seconds, 2 h=2×3600 s; C0 is the initial concentration in the donor chamber; CR is the final concentrations in receiver chamber. The efflux ratio is calculated using the following equation: Efflux ratio=[…]) where Papp (A-B) and Papp (B-A) are the Papp values of compound in Apical to Basolateral and Basolateral to Apical directional transport, respectively.
Background: Passage across Caco-2 layers is used to estimate intestinal permeability.

The target of series [2] is T1, A2A receptor (Homo sapiens, UniProt P29274).
T1 construct: host or cells: HEK-293
T1 sequence (P29274 whole entry): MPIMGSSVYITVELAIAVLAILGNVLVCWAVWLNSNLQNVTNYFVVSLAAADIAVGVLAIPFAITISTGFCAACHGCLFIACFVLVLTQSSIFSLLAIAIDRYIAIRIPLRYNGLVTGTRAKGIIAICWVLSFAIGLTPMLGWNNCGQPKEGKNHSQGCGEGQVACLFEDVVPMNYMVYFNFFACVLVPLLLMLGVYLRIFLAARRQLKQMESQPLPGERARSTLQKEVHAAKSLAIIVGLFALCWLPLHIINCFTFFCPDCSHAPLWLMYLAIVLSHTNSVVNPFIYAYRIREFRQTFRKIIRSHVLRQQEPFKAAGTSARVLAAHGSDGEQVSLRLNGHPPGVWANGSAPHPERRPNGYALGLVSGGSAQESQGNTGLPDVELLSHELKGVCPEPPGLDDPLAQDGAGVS
Nature of the series: Inhibition of cAMP production in HEK cells (LANCE Ultra cAMP, TR-FRET). It is filed as cell-based. The note with it: HEK-293 cells with stable transfection of A2A receptor. The method, then:
When the A2A receptor is activated, is induces the production of cAMP. The present assay thus aims at showing that cAMP production is inhibited in HEK cells in response to their exposure to the compounds of the invention. HEK-293 cells with a stable transfection of A2A receptor were bought from PerkinElmer® (#ES-011-C). Cells were cultured in EMEM medium (Lonza, #BE12-611F) supplemented with 10% FBS (Lonza, #DE14-801F) and 200 μg/mL of G418 (Tocris, #4131) at 37° C. and 5% CO2. Fresh media without the selection marker was added on the day immediately before the experiment to stop selection pressure. cAMP inhibition and antagonist IC50 determination were accessed using the LANCE® Ultra cAMP Kit from PerkinElmer® (#TRF0262) on white half area 96 well plates (PerkinElmer®, #6005560). The assays were conducted in two different stimulation buffers: • a) normal with 1×HBSS (Gibco®, #141750-95), 5 mM HEPES (Lonza, #BE17-737E), 0.1% BSA and 25 μM Rolipram and • b) HSA with 1×HBSS (Gibco®, #141750-95), 5 mM HEPES (Lonza, #BE17-737E), 2% Human Serum Albumin (Sigma-Aldrich®—A1653), 30 μM of EHNA (Tocris—#1261) and 100 μM Rolipram. Stimulation buffer b) mimics the human situation by increasing the amount of albumin present in the assay. Compounds of the present invention were diluted 100× in either of the buffers depending on the assay performed. A total of 1000 cells per well were pre-incubated for 10 minutes with the compounds of the present invention before adding the corresponded EC80 of A2A agonist (3 nM of NECA in normal buffer) or 5 μM of Adenosine (in HAS buffer) for a total reaction time of 30 minutes. The total volume of the reaction was 20 μl (10 μl of cells, 5 μl of antagonist and 5 μl of agonist). The reaction was finalized by adding 10 μl of 4×EU-cAMP tracer working solution and 10 μl of 4× ULight-anti-cAMP working solution. The TR-FRET signal was measured after 1 hour using a Spectramax Paradigm (Molecular Devices).
In general terms: Cyclic AMP is a second messenger, typically raised through Gs and lowered through Gi signalling.

Where [3] appears, read: HSA stimulation buffer, 5 μM Adenosine as agonist, 2.0% HSA, read-out: IC50 (nM) (5 μM Adenosine as agonist, 2.0% HSA).
[4] abbreviates: normal stimulation buffer, 3 nM NECA as agonist, 0.1% BSA, read-out: IC50 (nM) (3 nM NECA as agonist, 0.1% BSA).

On to `C[S@+]([O-])CCOc1cc(N2CCN(CCNc3nc(N)n4nc(-c5ccco5)nc4n3)CC2)c(F)cc1F` [Compound 10, (S)—N5-(2-(4-(2,4-difluoro-5-(2-(methylsulfinyl)ethoxy)phenyl)piperazin-1-yl)ethyl)-2-(furan-2-yl)-[1,2,4]triazolo[1,5-a][1,3,5]triazine-5,7-diamine], for which, in series [1], the efflux ratio at 120 min, 2 μM is above 900. Also, the IC50 in series [2] (setting [3]) is 25 nM; in series [2] (setting [4]) it was 0.2 nM.
On the same counts, the results for `C[S@@+]([O-])CCOc1cc(N2CCN(CCNc3nc(N)n4nc(-c5ccco5)nc4n3)CC2)c(F)cc1F` [Compound 11, (R)—N5-(2-(4-(2,4-difluoro-5-(2-(methylsulfinyl)ethoxy)phenyl)piperazin-1-yl)ethyl)-2-(furan-2-yl)-[1,2,4]triazolo[1,5-a][1,3,5]triazine-5,7-diamine] are above 600, 41 nM and 0.4 nM.
For the compound `C[S@+]([O-])CCOc1cc(N2CCN(CCn3ncc4c3nc(N)n3nc(-c5ccco5)nc43)CC2)c(F)cc1F` [Compound 12, (S)-7-(2-(4-(2,4-difluoro-5-(2-(methylsulfinyl)ethoxy)phenyl)piperazin-1-yl)ethyl)-2-(furan-2-yl)-7H-pyrazolo[4,3-e][1,2,4]triazolo[1,5-c]pyrimidin-5-amine], the efflux ratio at 120 min, 2 μM in series [1] was above 140. In addition, the IC50 stood at 162 nM in series [2] (setting [3]) and 0.4 nM in series [2] (setting [4]).
Taken in the same sequence, the figures for `C[S@@+]([O-])CCOc1cc(N2CCN(CCn3ncc4c3nc(N)n3nc(-c5ccco5)nc43)CC2)c(F)cc1F` [Compound 13, (R)-7-(2-(4-(2,4-difluoro-5-(2-(methylsulfinyl)ethoxy)phenyl)piperazin-1-yl)ethyl)-2-(furan-2-yl)-7H-pyrazolo[4,3-e][1,2,4]triazolo[1,5-c]pyrimidin-5-amine] were above 100, 131 nM and 0.5 nM.
Taken in the same sequence, the figures for `Nc1nc(NCCN2CCN(c3cc(O[C@H]4CC[S@@+]([O-])CC4)c(F)cc3F)CC2)nc2nc(-c3ccco3)nn12` [Compound 14, (1s,4s)-4-(5-(4-(2-((7-amino-2-(furan-2-yl)-[1,2,4]triazolo[1,5-a][1,3,5]triazin-5-yl)amino)ethyl)piperazin-1-yl)-2,4-difluorophenoxy)tetrahydro-2H-thiopyran 1-oxide] were above 900, 71 nM and 0.7 nM.
On the same counts, the results for `Nc1nc(NCCN2CCN(c3ccc(C(=O)N4CC[S+]([O-])CC4)cc3F)CC2)nc2nc(-c3ccco3)nn12` [Compound 18, (4-(4-(2-((7-amino-2-(furan-2-yl)-[1,2,4]triazolo[1,5-a][1,3,5]triazin-5-yl)amino)ethyl)piperazin-1-yl)-3-fluorophenyl)(1-oxidothiomorpholino)methanone] are above 80, 632 nM and 0.5 nM.
For `Nc1nc(NCCN2CCN(c3ccc(O[C@H]4CC[S@@+]([O-])CC4)cc3F)CC2)nc2nc(-c3ccco3)nn12` [Compound 19], in series [1], the efflux ratio at 120 min, 2 μM was above 110. Besides, the IC50 in series [2] (setting [3]) came out at 106 nM; in series [2] (setting [4]) it was 0.8 nM.
Taken in the same sequence, the figures for `Cn1c(=O)n(CCN2CCN(c3ccc(OCC[S+](C)[O-])cc3F)CC2)c2nc(N)n3nc(-c4ccco4)nc3c21` (stereo not drawn) [Compound 20, 5-amino-3-(2-(4-(2-fluoro-4-(2-(methylsulfinyl)ethoxy)phenyl)piperazin-1-yl)ethyl)-8-(furan-2-yl)-1-methyl-1H-[1,2,4]triazolo[5,1-i]purin-2(3H)-one] were above 300, 72 nM and 0.4 nM.
In the case of `Cn1c(=O)n(CCN2CCN(c3cc(OC4CCNC4=O)c(F)cc3F)CC2)c2nc(N)n3nc(-c4ccco4)nc3c21` (stereo not drawn) [Compound 21, 5-amino-3-(2-(4-(2,4-difluoro-5-((2-oxopyrrolidin-3-yl)oxy)phenyl)piperazin-1-yl)ethyl)-8-(furan-2-yl)-1-methyl-1H-[1,2,4]triazolo[5,1-i]purin-2(3H)-one], the efflux ratio at 120 min, 2 μM in series [1] was above 150. For the same compound, the values for the 50% inhibitory concentration (IC50) in series [2] (setting [3]) and in series [2] (setting [4]) were 178 nM and 0.4 nM, respectively.
